Assay results reported in patent publication EP1064941A1, “Use of melatoninergic ligands for obtaining pharmaceutical compositions for the prevention or the treatment of gastrointestinal pathologies” (ADIR ET COMPAGNIE, priority 1999, dated 2001).

Assays:
Assay type in all cases: in vivo
[1] = system: complexes myoélectriques intestinaux; assay: Effects of melatoninergic ligands on intestinal myoelectric complexes in the rat (electrodes implanted on the intestinal wall); conditions: male Wistar rats
Procedure: Des rats mâles Wistar adultes placés en cycle lumière/obscurité 12h/12h sont implantés sous anesthésie d'électrodes sur la paroi de l'intestin afin d'enregistrer l'activité myoélectrique. Les rats ont un accès limité (30 min) à la nourriture pendant la période diurne.
Les composés de l'invention agonistes mélatoninergiques ou la mélatonine sont administrés par voie intraveineuse à la dose de 1 mg/kg, 10 min avant le repas. […] Ces complexes myoélectriques apparaissent tout d'abord sur le duodénum avec un délai de 50 min puis ils se propagent sur le jéjunum et l'iléon.

[2] = system: durée de la réponse postprandiale; assay: Effects of melatoninergic ligands on the duration of the postprandial response (irregular intestinal motor activity) in the rat; conditions: male Wistar rats, 30 min before access to food
Procedure: Chez le rat, la durée de la réponse postprandiale évaluée par l'activité motrice irrégulière intestinale, est plus courte en période d'obscurité que pendant la période diurne et ceci pour une même quantité d'aliments ingérés. Afin de confirmer que cette diminution de la durée pouvait être due à la sécrétion nocturne de mélatonine, le protocole suivant a été réalisé : des rats mâles Wistar adultes habitués à un cycle lumière/obscurité 12h/12h sont implantés sous anesthésie d'électrodes sur la paroi de l'intestin afin d'enregistrer l'activité myoélectrique. Les rats ont un accès limité (30 min) à la nourriture soit pendant la période nocturne soit pendant la période diurne. Les molécules de l'invention sont administrées 30 min avant l'accès à la nourriture. Le paramètre évalués dans ces études est la durée de l'activité irrégulière motrice. Les périodes de complexes myoélectriques ne sont pas prises en compte dans le cas d'induction par la molécule testée.

[3] = system: inflammation intestinale induite par l'indométhacine; assay: Indomethacin-induced intestinal inflammation model in the rat; conditions: male Wistar rats, 50 mg/kg ip ten minutes before each of two indomethacin doses (7,5 mg/kg sc, 24 h apart)
Excerpt: L'inflammation intestinale induite par administration d'indométhacine chez le rat est considérée comme un modèle animal physiopathologique présentant des modifications du comportement et de la motricité intestinale similaires à celles observées chez les patients atteints de la maladie de Crohn (Yamada T. et al, 1993, Mechanisms of acute and chronic intestinal inflammation induces by indomethacin, Inflammation, 17-6, 641-62; Gurbuz V. et al, 1999, Role of nitric oxide in indomethacin-induced gastric mucosal dysfunction in the rat, Experimental Physiology, 84, 319-332; Chen K. et al, 1999, Expression of NO II and its role in the experimental small bowel ulceration in rats, Surgery, 126, 553-561).
Des rats mâles Wistar adultes placés en cycle lumière/obscurité 12h/12h sont implantés sous anesthésie d'électrodes sur la paroi de l'intestin afin d'enregistrer l'activité myoélectrique. Les animaux sont divisés en plusieurs groupes.
Le groupe de rats témoins reçoit deux administrations d'indométhacine (7,5 mg/kg sc) espacées de 24 h. Les autres groupes de rats sont prétraités par la mélatonine ou un ligand mélatoninergique (50 mg/kg ip) dix minutes avant les deux administrations d'indométhacine.
Les animaux sont suivis sur le plan comportemental (prise alimentaire), physiologique (aspect du pelage, diarrhées) et motricité intestinale.

Row | SMILES | blocage de l'induction des complexes myoélectriques par l'agoniste ([1]; antagonist pretreatment 2 mg/kg subcutaneous, 30 min before the agonist) | durée de la réponse postprandiale nocturne ([2]; given 5 h after onset of darkness) | apparition de complexes myoélectriques pendant la réponse motrice postprandiale ([1]; 1 mg/kg intravenous, 10 min before the meal, daytime feeding (30 min access)) | délai d'apparition des complexes myoélectriques sur le duodénum ([1]; 1 mg/kg intravenous, 10 min before the meal, complexes then propagate to jejunum and ileum) | durée de la réponse postprandiale diurne ([2]; 100 µg/kg intravenous, given 4 h after onset of light) | symptômes de l'inflammation intestinale (diarrhées, perte de poils, prise alimentaire, motricité intestinale) [3]
1 | CCc1ccc2scc(CCNC(C)=O)c2c1 [N-[2-(5-éthyl-1-benzothiophèn-3-yl)éthyl]acétamide] | empêche toute formation de complexe myoélectrique | entraîne un allongement de la réponse postprandiale qui devient d'une durée équivalente à la réponse observée le jour |  |  |  | 
2 | COc1ccc2[nH]cc(CCNC(C)=O)c2c1 [mélatonine] |  |  | induisent l'apparition de complexes myoélectriques pendant la réponse motrice postprandiale | 50 min | réduit la durée de la réponse postprandiale et la ramène à une durée de type nocturne | ne présentent plus de diarrhées, de perte de poils, de diminution de la prise alimentaire et de la motricité intestinale
